Reference: PubChem BioAssay (NCI)
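Step 1: Grow cells in 96-well plates. Step 2: Expose to compound for 48 hours at 5 concentrations. Step 3: Interpolate endpoints linearly; if unreached, use highest concentration. Definition used: TGI = concentration required for complete inhibition of growth.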

Key:
Assay in all cases: DTP human tumour cell line panel, 48 h
786-0 renal = system: 786-0 renal
A498 renal = system: A498 renal
A549 NSCLC = system: A549 NSCLC
ACHN renal = system: ACHN renal
CAKI-1 renal = system: CAKI-1 renal
COLO 205 colon = system: COLO 205 colon
DLD-1 colon = system: DLD-1 colon
DMS 114 small cell lung = system: DMS 114 small cell lung
DMS 273 small cell lung = system: DMS 273 small cell lung
EKVX NSCLC = system: EKVX NSCLC
HCC-2998 colon = system: HCC-2998 colon
HCT-116 colon = system: HCT-116 colon
HCT-15 colon = system: HCT-15 colon
HL-60(TB) leukemia = system: HL-60(TB) leukemia
HOP-18 NSCLC = system: HOP-18 NSCLC
HOP-62 NSCLC = system: HOP-62 NSCLC
IGROV1 ovarian = system: IGROV1 ovarian
K-562 leukemia = system: K-562 leukemia
KM12 colon = system: KM12 colon
KM20L2 colon = system: KM20L2 colon
LXFL 529 NSCLC = system: LXFL 529 NSCLC
M14 melanoma = system: M14 melanoma
M19-MEL melanoma = system: M19-MEL melanoma
MALME-3M melanoma = system: MALME-3M melanoma
MOLT-4 leukemia = system: MOLT-4 leukemia
NCI-H226 lung = system: NCI-H226 lung
NCI-H460 lung = system: NCI-H460 lung
NCI-H522 lung = system: NCI-H522 lung
OVCAR-3 ovarian = system: OVCAR-3 ovarian
OVCAR-4 ovarian = system: OVCAR-4 ovarian
OVCAR-8 ovarian = system: OVCAR-8 ovarian
RPMI-8226 leukemia = system: RPMI-8226 leukemia
RXF 393 renal = system: RXF 393 renal
RXF-631 renal = system: RXF-631 renal
SF-268 CNS = system: SF-268 CNS
SF-539 CNS = system: SF-539 CNS
SK-MEL-2 melanoma = system: SK-MEL-2 melanoma
SK-MEL-28 melanoma = system: SK-MEL-28 melanoma
SK-MEL-5 melanoma = system: SK-MEL-5 melanoma
SK-OV-3 ovarian = system: SK-OV-3 ovarian
SN12C renal = system: SN12C renal
SNB-19 CNS = system: SNB-19 CNS
SNB-75 CNS = system: SNB-75 CNS
SNB-78 CNS = system: SNB-78 CNS
SR leukemia = system: SR leukemia
SW-620 colon = system: SW-620 colon
TK-10 renal = system: TK-10 renal
U251 CNS = system: U251 CNS
UACC-257 melanoma = system: UACC-257 melanoma
UACC-62 melanoma = system: UACC-62 melanoma
UO-31 renal = system: UO-31 renal

Measured: TGI

O=c1ccn(C2(CO)C=C(CO)C(O)C2O)c(=O)[nH]1 (stereo unspecified)
> 25.7 µM: all assays above
